Values after ≈ are worked out from the molar mass of the structure shown. Like-named read-outs stand apart in the source and are kept apart here. Bridge positions count the residues as written; N and C are the ends. Square brackets hold non-standard residues; d marks the D form. Peptide text beside a SMILES is read from it. * marks the point of attachment. Phe(4-NH2) = Nc1ccc(C[C@H](N)C(=O)O)cc1; Octanoyl = CCCCCCCC(=O)*; Dab = NCC[C@H](N)C(=O)O
Assays:
[1] = tested on: K. pneumoniae CI Koprana 100650661:1, PmxR; assay: microbe, parasite or virus in culture; assay type: cell-based, Klebsiella pneumoniae; settings: carbapenem & polymyxin resistant clinical isolate, MHB, 5 × 10^5 CFU/mL, 18 h at 37 °C
K. pneumoniae ATCC 13883 [2] = assay: microbe, parasite or virus in culture; assay type: cell-based, Klebsiella pneumoniae; settings: MHB, 5 × 10^5 CFU/mL, read visually after 18 h at 37 °C
[3] = tested on: K. pneumoniae CI 138-16357-20362, PmxR; assay: microbe, parasite or virus in culture; assay type: cell-based, Klebsiella pneumoniae; settings: carbapenem & polymyxin resistant clinical isolate, MHB, 5 × 10^5 CFU/mL, 18 h at 37 °C
[4] = tested on: P. aeruginosa PA9704, PmxR; assay type: cell-based, Pseudomonas aeruginosa; settings: polymyxin resistant clinical isolate; MHB, 5 × 10^5 CFU/mL, 18 h at 37 °C
[5] = tested on: P. aeruginosa FADDI-PA070, PmxR; assay type: cell-based, Pseudomonas aeruginosa; settings: polymyxin resistant clinical isolate; MHB, 5 × 10^5 CFU/mL, 18 h at 37 °C
P. aeruginosa ATCC 27853 [6] = assay: microbe, parasite or virus in culture; assay type: cell-based, Pseudomonas aeruginosa; settings: MHB, 5 × 10^5 CFU/mL, read visually after 18 h at 37 °C
Procedure: (§1) Bacteria were either obtained from American Type Culture Collection (ATCC; Manassas, VA, USA) or independent academic clinical isolate collections, as listed in Table S2. Bacteria were cultured in nutrient broth (NB; Bacto Laboratories, catalog no. 234000) or Muller Hinton broth (MHB; Bacto Laboratories, catalog no. 211443) at 37 °C overnight with shaking (∼180 rpm). A sample of each culture was then diluted 50-fold in fresh MHB and incubated at 37 °C for 1.5–3 h with shaking (∼180 rpm). Compound stock solutions were prepared as 0.64 or 2.56 mg/mL in water. The compounds, at twice the final desired concentration, were serially diluted 2-fold across the wells of 96-well plates (Polystyrene, Corning, catalogue No. 3370). Mid log phase bacterial cultures (after 1.5–3 h incubation) were diluted to a final concentration of 5 × 10^5 colony forming units (CFU)/mL, and 50 μL was added to each well giving a final compound concentration range of 32 μg/mL to 0.015 μg/mL (128–0.06 μg/mL for colistin and polymyxin B against the polymyxin resistant clinical isolates). MICs were determined visually after 18 h of incubation at 37 °C, with the MIC defined as the lowest compound concentration at which no bacterial growth was visible.
(§2) Table S2. Bacterial strains used for Minimum Inhibitory Concentration (MIC) […]
(§3) Organism Strain Strain description Strain Source
(§4) Escherichia coli ATCC 25922 FDA strain Seattle 1946 ATCC
(§5) Klebsiella pneumoniae ATCC 13883 Control strain ATCC
(§6) Klebsiella pneumoniae ATCC 700603 Multi-drug resistant ATCC
(§7) Klebsiella pneumoniae BAA-2146 Metallo-beta-lactamase- ATCC
(§8) Acinetobacter baumannii ATCC 19606 Type strain ATCC
(§9) Pseudomonas aeruginosa ATCC 27853 Type strain ATCC
(§10) Pseudomonas aeruginosa FADDI-PA070 Clinical isolate, Nation and Li labs, polymyxin resistant Monash University
(§11) Clinical isolate, Wang Hengzhuang, Pseudomonas aeruginosa PA9704 polymyxin resistant University Hospital of […]
(§12) Ptyela Clinical isolate, Ilias Karaiskos and Acinetobacter baumannii Carbapenem & Helen Giamarellou
(§13) Clinical isolate, Medicine, Hygeia
(§14) Klebsiella pneumoniae Koprana Carbapenem, & General Hospital, […]
(§15) Clinical isolate, (Instituto Dante […]
(§16) polymyxin resistant Cardiologia, São […]

[7] = tested on: A. baumannii CI Ptyela 100734512:2, PmxR; assay: microbe, parasite or virus in culture; assay type: cell-based, Acinetobacter baumannii; settings: carbapenem & polymyxin resistant clinical isolate, MHB, 5 × 10^5 CFU/mL, 18 h at 37 °C
[8] = tested on: primary human renal proximal tubule epithelial (hPT) cells; assay: Nephrotoxicity assay, LDH release; assay type: cell-based; settings: primary human kidney cells
Source text: (§17) Primary human renal proximal tubule epithelial (hPT) cells were isolated and used for in vitro prediction of drug-induced nephrotoxicity[63],[64],[69] by measuring the release of metabolism enzymes, LDH and GGT, as previously described.[70]

A. baumannii ATCC 19606 [9] = assay type: cell-based, Acinetobacter baumannii; settings: MHB, 5 × 10^5 CFU/mL, read visually after 18 h at 37 °C
Procedure: as §1, §2, §3, §4, §5, §6, §7, §8, §9, §10, §11, §12, §13, §14, §15, §16

[10] = tested on: K. pneumoniae ATCC 700603, MDR; assay type: cell-based, Klebsiella pneumoniae; settings: MHB, 5 × 10^5 CFU/mL, read visually after 18 h at 37 °C
Procedure: as §1, §2, §3, §4, §5, §6, §7, §8, §9, §10, §11, §12, §13, §14, §15, §16

[11] = tested on: K. pneumoniae ATTC BAA-2146, NDM-1 pos; assay type: cell-based, Klebsiella pneumoniae; settings: MHB, 5 × 10^5 CFU/mL, read visually after 18 h at 37 °C
Procedure: as §1, §2, §3, §4, §5, §6, §7, §8, §9, §10, §11, §12, §13, §14, §15, §16

[12] = tested on: primary human renal proximal tubule epithelial (hPT) cells; assay: Nephrotoxicity assay, GGT release; assay type: cell-based; settings: primary human kidney cells
Source text: as §17

[13] = tested on: S. aureus ATCC 25923, MSSA; assay: microbe, parasite or virus in culture; assay type: cell-based, Staphylococcus aureus; settings: MHB, 5 × 10^5 CFU/mL, read visually after 18 h at 37 °C
HEK293 cells = assay: Cytotoxicity assay (resazurin assay); assay type: cell-based, human; settings: 4000 cells/well, 24 h incubation with compound, fluorescence 560/590
HepG2 cells = assay: Cytotoxicity assay (resazurin assay); assay type: cell-based, human; settings: 4000 cells/well, 24 h incubation with compound, fluorescence 560/590
E. coli ATCC 25922 [14] = assay: microbe, parasite or virus in culture; assay type: cell-based, Escherichia coli; settings: MHB, 5 × 10^5 CFU/mL, read visually after 18 h at 37 °C
Procedure: as §1, §2, §3, §4, §5, §6, §7, §8, §9, §10, §11, §12, §13, §14, §15, §16

HepG2 = settings: CC50 HepG2 (µM)
E. coli ATCC 25922 [15] = settings: MIC E. coli ATCC 25922 (µg/mL)
[16] = tested on: A. baumannii CI Ptyela 100734512:2, PmxR; settings: MIC A. baumannii CI Ptyela 100734512:2, PmxR (µg/mL)
P. aeruginosa ATCC 27853 [17] = settings: MIC P. aeruginosa ATCC 27853 (µg/mL)
A. baumannii ATCC 19606 [18] = settings: MIC A. baumannii ATCC 19606 (µg/mL)
[19] = tested on: K. pneumoniae CI Koprana 100650661:1, PmxR; settings: MIC K. pneumoniae CI Koprana 100650661:1, PmxR (µg/mL)
K. pneumoniae ATCC 13883 [20] = settings: MIC K. pneumoniae ATCC 13883 (µg/mL)
[21] = tested on: S. aureus ATCC 25923, MSSA; settings: MIC S. aureus ATCC 25923, MSSA (µg/mL)
[22] = tested on: K. pneumoniae CI 138-16357-20362, PmxR; settings: MIC K. pneumoniae CI 138-16357-20362, PmxR (µg/mL)
[23] = tested on: K. pneumoniae ATCC 700603, MDR; settings: MIC K. pneumoniae ATCC 700603, MDR(µg/mL)
[24] = tested on: P. aeruginosa PA9704, PmxR; settings: MIC P. aeruginosa PA9704, PmxR (µg/mL)
[25] = tested on: P. aeruginosa FADDI-PA070, PmxR; settings: MIC P. aeruginosa FADDI-PA070, PmxR (µg/mL)
[26] = tested on: K. pneumoniae ATTC BAA-2146, NDM-1 pos; settings: MIC K. pneumoniae ATTC BAA-2146, NDM-1 pos (µg/mL)

Compound	MIC K. pneumoniae CI Koprana 100650661:1, PmxR [1] [µg/mL]	MIC K. pneumoniae ATCC 13883 (K. pneumoniae ATCC 13883 [2]) [µg/mL]	MIC K. pneumoniae CI 138-16357-20362, PmxR [3] [µg/mL]	MIC P. aeruginosa PA9704, PmxR [4] [µg/mL]	MIC P. aeruginosa FADDI-PA070, PmxR [5] [µg/mL]	MIC P. aeruginosa ATCC 27853 (P. aeruginosa ATCC 27853 [6]) [µg/mL]	MIC A. baumannii CI Ptyela 100734512:2, PmxR [7] [µg/mL]	LDH release CC50 [8] [µg/mL]	MIC A. baumannii ATCC 19606 (A. baumannii ATCC 19606 [9]) [µg/mL]	MIC K. pneumoniae ATCC 700603, MDR [10] [µg/mL]	MIC K. pneumoniae ATTC BAA-2146, NDM-1 pos [11] [µg/mL]	GGT release CC50 [12] [µg/mL]	MIC S. aureus ATCC 25923, MSSA [13] [µg/mL]	HEK293 CC50 (HEK293 cells) [µM]	HepG2 - CC50 (HepG2 cells) [µM]	other results
CC[C@H](C)CCCCC(=O)N[C@@H](CCN)C(=O)N[C@H](C(=O)N[C@@H](CCN)C(=O)N[C@H]1CCNC(=O)[C@H]([C@@H](C)O)NC(=O)[C@H](CCN)NC(=O)[C@H](CCN)NC(=O)[C@H](CC(C)C)NC(=O)[C@@H](Cc2ccccc2)NC(=O)[C@H](CCN)NC1=O)[C@@H](C)O [Polymyxin B 1, polymyxin B]	64 (≈ 53.2 µM)	1 (≈ 0.831 µM)	64 (≈ 53.2 µM)	128 (≈ 106 µM)	32 (≈ 26.6 µM)	0.5 (≈ 0.415 µM)	64 (≈ 53.2 µM)	23	0.25 (≈ 0.208 µM)	0.5 (≈ 0.415 µM)	0.25 (≈ 0.208 µM)	177	>64	>300	>300	
CNC(C)C1CCC(N)C(OC2C(N)CC(N)C(OC3OCC(C)(O)C(NC)C3O)C2O)O1 (stereo not drawn) [Gentamicin, reference compound]								33				33		>300	>300	MIC ([1]; Klebsiella pneumoniae): > 32 µg/mL; MIC (K. pneumoniae ATCC 13883 [2]; Klebsiella pneumoniae, ATCC13883): 0.25 µg/mL (≈ 0.523 µM); MIC ([3]; Klebsiella pneumoniae): 1 µg/mL (≈ 2.09 µM); MIC (P. aeruginosa ATCC 27853 [6]; Pseudomonas aeruginosa, ATCC27853): 1 µg/mL (≈ 2.09 µM); MIC ([7]; Acinetobacter baumannii): > 32 µg/mL; MIC (E. coli ATCC 25922 [14]; Escherichia coli, ATCC25922, 18 h): 0.25 µg/mL (≈ 0.523 µM)
6Me-C7CO/ 6Me-C6CO Dab Thr Dab Dab Dab D-Leu Leu Dab Dab (lariat or depsi) [Colistin 2, polymyxin E (colistin), macrocyclic lipodecapeptide antibiotic, D-Leu at position-6, reference compound]	>128	0.25	64	128	>32	0.5	>64	25	0.25	0.25	0.25	48	>128	>300	>300	MIC E. coli ATCC 25922 (E. coli ATCC 25922 [14]): 0.25 µg/mL
CCCCCCCC(=O)N[C@@H](CCN)C(=O)N[C@H](C(=O)N[C@@H](CCN)C(=O)N[C@H]1CCNC(=O)[C@H]([C@@H](C)O)NC(=O)[C@H](CCN)NC(=O)[C@H](CCN)NC(=O)[C@H](CC(C)C)NC(=O)[C@@H](Cc2ccccc2)NC(=O)[C@H](Cc2ccc(N)cc2)NC1=O)[C@@H](C)O [Compound 34] (Octanoyl-[Dab]T[Dab][Dab][Phe(4-NH2)][dF]L[Dab][Dab]T; lactam 4-C)	>32		>32								>32					CC50 (HepG2): > 300 µM; MIC (E. coli ATCC 25922 [15]): > 32 µg/mL; MIC [16]: > 32 µg/mL; MIC (P. aeruginosa ATCC 27853 [17]): > 32 µg/mL; MIC (A. baumannii ATCC 19606 [18]): > 32 µg/mL; MIC [19]: > 32 µg/mL; MIC (K. pneumoniae ATCC 13883 [20]): > 32 µg/mL; MIC [21]: > 32 µg/mL; MIC [22]: > 32 µg/mL; MIC [23]: > 32 µg/mL; MIC [24]: > 32 µg/mL; MIC [25]: > 32 µg/mL; MIC [26]: > 32 µg/mL
